Measured values as given in patent publication US8828401B2, “Cytotoxic peptides and antibody drug conjugates thereof” (Pfizer Inc., priority 2011, dated 2014).
Starred links: 1 amine or outer side, 2 acyl side, 3 side chain; linkers in the order of their positions; H or OH if unused. Non-standard residues stand in square brackets, D forms with d. Residues, ends and D or L forms follow the SMILES beside them. *: point of attachment. Dolaproine = CO[C@@H]([C@@H]1CCCN1)[C@@H](C)C(=O)O; Dil = CC[C@H](C)[C@H](NC)[C@@H](CC(=O)O)OC; X7 = C[C@@]1(C(=O)[*:2])CCCCN1[*:1]; Doe = c1ccc(C[C@H](N*)c2nccs2)cc1; NMeαMePro = CN1CCC[C@@]1(C)C(=O)*; NMeAib = CNC(C)(C)C(=O)O; Ac5c = NC1(C(=O)O)CCCC1; NH(propargyl) = C#CCN*; Aib = CC(C)(N)C(=O)O; OtBu = CC(C)(C)O*

Assays:
Type in all cases: cell-based
BT474 (breast cancer) = experiment: In vitro cell assay, MTS cell viability 96 hours after treatment; conditions: Homo sapiens, BT-474, BT474 cells; geometric mean; cytotoxic peptides; read-out: BT474 GMEAN IC50
How it was run: (§1)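 Cells are exposed to 3-fold dilution series (10 points, duplicate wells) of ADC or free compound lacking antibody. After 96 hours, an MTS assay quantifies viability relative to untreated cells.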

[1] = test system: MDA-MB-361-DYT2 (breast cancer); experiment: as above; conditions: read-out: MDA-MB-361-DYT2 GMEAN IC50, MDA-MB-361-DYT2 cells; geometric mean; cytotoxic peptides
How it was run: as §1

N87 (gastric cancer) = experiment: as above; conditions: read-out: N87 GMEAN IC50, N87 cells; geometric mean; cytotoxic peptides
How it was run: as §1

[2] = test system: MDA-MB-468 (breast cancer); experiment: In vitro cytotoxicity assay with anti-Notch ADCs (MTS); conditions: average of 2-4 repeats where ± S.E.M. is given
Description: The effects of anti-Notch ADCs were assessed on 1) cell lines endogenously expressing Notch protein: HCC2429 (lung cancer), OVCAR3 (ovarian cancer) and MDA-MB-468 (breast cancer), 2) cell lines engineered to over-express Notch protein: MDA-MB-468/hNotch and U2OS/hNotch, and 3) a negative control cell line (SW900) using an MTS cellular viability indicator (Promega, Madison, Wis.). These cell lines were cultured with increasing concentrations of anti-Notch ADCs comprising humanized anti-Notch antibodies, hu28 and hu75, and rat-human chimeric anti-Notch antibodies, ch28 and ch75, conjugated to various linker-payload combinations of the present invention. As a specificity control for the anti-Notch-ADCs, non-targeted control-ADCs (huNeg8.8-ADCs or ch2H6-ADCs) were also tested on the same cell lines. After four days, viability of each culture was assessed. IC50 values were calculated by logistic non-linear regression and presented as ng Ab/mL. The drug antibody ratio (DAR) is also provided.

Row | Molecule | IC50 (BT474 (breast cancer)) [nM] | IC50 [1] [nM] | IC50 (N87 (gastric cancer)) [nM] | IC50 (ng Ab/mL) ± S.E.M. [2] [ng Ab/mL]
1 | CC[C@H](C)[C@@H]([C@@H](CC(=O)N1CCC[C@H]1[C@H](OC)[C@@H](C)C(=S)N[C@@H](Cc1ccccc1)C(=O)O)OC)N(C)C(=O)[C@@H](NC(=O)[C@@H](NC)C(C)C)C(C)C [#41, N-methyl-L-valyl-N-[(3R,4S,5S)-1-{(2S)-2-[(1R,2R)-3-{[(1S)-1-carboxy-2-phenylethyl]amino}-1-methoxy-2-methyl-3-thioxopropyl]pyrrolidin-1-yl}-3-methoxy-5-methyl-1-oxoheptan-4-yl]-N-methyl-L-valinamide] | 29.7 | 51.8 | 33.2 | 
2 | CC[C@H](C)[C@@H]([C@@H](CC(=O)N1CCC[C@H]1[C@H](OC)[C@@H](C)C(=O)N[C@@H](Cc1c[nH]cn1)C(=O)OC)OC)N(C)C(=O)[C@@H](NC(=O)C(C)(C)NC)C(C)C [#242] (H-[NMeAib]V[Dil][Dolaproine]H-OMe) | 32.3 | 34.5 | 41.3 | 
3 | CC[C@H](C)[C@@H]([C@@H](CC(=O)N1CCC[C@H]1[C@H](OC)[C@@H](C)C(=O)N[C@H](CN)Cc1ccccc1)OC)N(C)C(=O)[C@@H](NC(=O)[C@]1(C)CCCN1C)C(C)C [#246] | 3.16 | 5.43 | 10.8 | 
4 | CC[C@H](C)[C@@H]([C@@H](CC(=O)N1CCC[C@H]1[C@H](OC)[C@@H](C)C(=S)N[C@@H](Cc1ccccc1)c1nccs1)OC)N(C)C(=O)[C@@H](NC(=O)C(C)(C)N)C(C)C [#34, 2-methylalanyl-N-[(3R,4S,5S)-3-methoxy-1-{(2S)-2-[(1R,2R)-1-methoxy-2-methyl-3-{[(1S)-2-phenyl-1-(1,3-thiazol-2-yl)ethyl]amino}-3-thioxopropyl]pyrrolidin-1-yl}-5-methyl-1-oxoheptan-4-yl]-N-methyl-L-valinamide] | 0.211 | 1.12 | 1.95 | 
5 | CC[C@H](C)[C@@H]([C@@H](CC(=O)N1CCC[C@H]1[C@H](OC)[C@@H](C)C(=O)N[C@@H](Cc1ccccc1)C(=O)OC)OC)N(C)C(=O)[C@@H](NC(=O)C(C)(C)CNC)C(C)C [#155, methyl N-{(2R,3R)-3-[(2S)-1-{(3R,4S,5S)-4-[{N-[2,2-dimethyl-3-(methylamino)propanoyl]-L-valyl}(methyl)amino]-3-methoxy-5-methylheptanoyl}pyrrolidin-2-yl]-3-methoxy-2-methylpropanoyl}-L-phenylalaninate] | 0.323 | 0.318 | 0.875 | 
6 | CC[C@H](C)[C@@H]([C@@H](CC(=O)N1CCC[C@H]1[C@H](OC)[C@@H](C)C(=O)N[C@@H](Cc1ccccc1)c1nccs1)OC)N(C)C(=O)[C@@H](NC(=O)C(C)(C)CNC)C(C)C [#154, N˜2˜-[2,2-dimethyl-3-(methylamino)propanoyl]-N-{(1S,2R)-2-methoxy-4-{(2S)-2-[(1R,2R)-1-methoxy-2-methyl-3-oxo-3-{[(1S)-2-phenyl-1-(1,3-thiazol-2-yl)ethyl]amino}propyl]pyrrolidin-1-yl}-1-[(1S)-1-methylpropyl]-4-oxobutyl}-N-methyl-L-valinamide] | 0.193 | 0.198 | 0.572 | 
7 | CC[C@H](C)[C@@H]([C@@H](CC(=O)N1CCC[C@H]1[C@H](OC)[C@@H](C)C(=O)N[C@@H](Cc1ccccc1)c1nccs1)OC)N(C)C(=O)[C@@H](NC(=O)C1(N)CCCC1)C(C)C [#47, N^2-[(1-aminocyclopentyl)carbonyl]-N-[(3R,4S,5S)-3-methoxy-1-{(2S)-2-[(1R,2R)-1-methoxy-2-methyl-3-oxo-3-{[(1S)-2-phenyl-1-(1,3-thiazol-2-yl)ethyl]amino}propyl]pyrrolidin-1-yl}-5-methyl-1-oxoheptan-4-yl]-N-methyl-L-valinamide] (H-[Ac5c]V[Dil][Dolaproine]-Doe) | < 0.244 | 0.317 | < 0.256 | 
8 | CC[C@H](C)[C@@H]([C@@H](CC(=O)N1CCC[C@H]1[C@H](OC)[C@@H](C)C(=S)N[C@@H](Cc1ccccc1)C(=O)O)OC)N(C)C(=O)[C@@H](NC(=O)C(C)(C)NC)C(C)C [#80, N,2-dimethylalanyl-N-[(3R,4S,5S)-1-{(2S)-2-[(1R,2R)-3-{[(1S)-1-carboxy-2-phenylethyl]amino}-1-methoxy-2-methyl-3-thioxopropyl]pyrrolidin-1-yl}-3-methoxy-5-methyl-1-oxoheptan-4-yl]-N-methyl-L-valinamide] | 20.3 | 32.8 | 28.2 | 
9 | CC[C@H](C)[C@@H]([C@@H](CC(=O)N1CCC[C@H]1[C@H](OC)[C@@H](C)C(=O)N[C@@H](Cc1ccccc1)C(=O)OC)OC)N(C)C(=O)[C@@H](NC(=O)[C@]1(C)CCCCN1)C(C)C (single isomer, unassigned) [#158] | 0.082 | 0.1 | 0.115 | 
10 | CC[C@H](C)[C@@H]([C@@H](CC(=O)N1CCC[C@H]1[C@H](OC)[C@@H](C)C(=O)N[C@@H](Cc1ccccc1)C(=O)OC)OC)N(C)C(=O)[C@@H](NC(=O)[C@]1(C)CCCN1C)C(C)C [#209, 1,2-dimethyl-L-prolyl-N-[(3R,4S,5S)-3-methoxy-1-{(2S)-2-[(1R,2R)-1-methoxy-3-{[(2S)-1-methoxy-1-oxo-3-phenylpropan-2-yl]amino}-2-methyl-3-oxopropyl]pyrrolidin-1-yl}-5-methyl-1-oxoheptan-4-yl]-N-methyl-L-valinamide] (NMeαMePro-V[Dil][Dolaproine]F-OMe) | 0.067 | 0.058 | 0.067 | 
11 | CC[C@H](C)[C@@H]([C@@H](CC(=O)N1CCC[C@H]1[C@H](OC)[C@@H](C)C(=O)N[C@@H](Cc1ccccc1)C(=O)O)OC)N(C)C(=O)[C@@H](NC(=O)[C@]1(C)CCCCN1)C(C)C [#162, N-{(2R,3R)-3-methoxy-3-[(2S)-1-{(3R,4S,5S)-3-methoxy-5-methyl-4-[methyl(N-{[(2S)-2-methylpiperidin-2-yl]carbonyl}-L-valyl)amino]heptanoyl}pyrrolidin-2-yl]-2-methylpropanoyl}-L-phenylalanine] (H-[X7]V[Dil][Dolaproine]F-OH) | 31.4 | 27.8 | 21.6 | 
12 | CC[C@H](C)[C@@H]([C@@H](CC(=O)N1CCC[C@H]1[C@H](OC)[C@@H](C)C(=S)N[C@@H](Cc1ccccc1)c1nccs1)OC)N(C)C(=O)[C@@H](NC(=O)C1(N)CCCC1)C(C)C [#30, N^2-[(1-aminocyclopentyl)carbonyl]-N-[(3R,4S,5S)-3-methoxy-1-{(2S)-2-[(1R,2R)-1-methoxy-2-methyl-3-{[(1S)-2-phenyl-1-(1,3-thiazol-2-yl)ethyl]amino}-3-thioxopropyl]pyrrolidin-1-yl}-5-methyl-1-oxoheptan-4-yl]-N-methyl-L-valinamide] | 0.682 | 1.85 | 6.71 | 
13 | CC[C@H](C)[C@@H]([C@@H](CC(=O)N1CCC[C@H]1[C@H](OC)[C@@H](C)C(=O)N[C@@H](Cc1ccccc1)C(=O)OC(C)(C)C)OC)N(C)C(=O)[C@@H](NC(=O)C(C)(C)N)C(C)C [#123, 2-methylalanyl-N-[(3R,4S,5S)-1-{(2S)-2-[(1R,2R)-3-{[(2S)-1-tert-butoxy-1-oxo-3-phenylpropan-2-yl]amino}-1-methoxy-2-methyl-3-oxopropyl]pyrrolidin-1-yl}-3-methoxy-5-methyl-1-oxoheptan-4-yl]-N-methyl-L-valinamide] (H-[Aib]V[Dil][Dolaproine]F-OtBu) | 0.125 | 0.129 | 0.089 | 
14 | CC[C@H](C)[C@@H]([C@@H](CC(=O)N1CCC[C@H]1[C@H](OC)[C@@H](C)C(=S)N[C@@H](Cc1ccccc1)C(=O)OC)OC)N(C)C(=O)[C@@H](NC(=O)C(C)(C)NC)C(C)C [#79, N,2-dimethylalanyl-N-[(3R,4S,5S)-3-methoxy-1-{(2S)-2-[(1R,2R)-1-methoxy-3-{[(2S)-1-methoxy-1-oxo-3-phenylpropan-2-yl]amino}-2-methyl-3-thioxopropyl]pyrrolidin-1-yl}-5-methyl-1-oxoheptan-4-yl]-N-methyl-L-valinamide] | 0.079 | 0.129 | 0.137 | 
15 | C#CCNC(=O)[C@H](Cc1ccccc1)NC(=O)[C@H](C)[C@@H](OC)[C@@H]1CCCN1C(=O)C[C@@H](OC)[C@H]([C@@H](C)CC)N(C)C(=O)[C@@H](NC(=O)C(C)(C)NC)C(C)C [#241] (H-[NMeAib]V[Dil][Dolaproine]F-{NH(propargyl)}) | 0.364 | 0.494 | 0.388 | 
16 | ch75-MalPeg6C2-8261 (conjugate) VH: QVKLLQSGAALVKPGASVKMSCKASGYAFTDYWVTWVKQSHGKSLEWIGEISPNSGGTNFNEKFKGKATLTVDKSTSTAYMELSRLTSEDSAIYYCTRGEIRYNWFAYWGQGTLVTVSS VL: DIQMTQSPSSLSASVGDRVTITCKASQNVGNNIAWYQQKPGKAPKLLIYYASNRYTGVPSRFSGSGYGTDFTLTISSLQPEDFATYYCQRLYNSPFTFGGGTKVEIK |  |  |  | 4255 ± 2375
